The values that follow come from US8314129B2, “Optical isomers of an iloperidone metabolite” (Novartis AG, priority 2004, dated 2012).

For data set [1] the following is noted: higher than parent drug iloperidone; cited from earlier work.
Data set [2] can be described thus: metabolite formation in humans following administration of iloperidone. It is filed as in vivo, human. From the text:
P-88-8991 consists of a mixture of two enantiomers which have never been disclosed in the literature.

Data set [3] addresses 5HT6 receptors (Homo sapiens, UniProt P50406). The data set is described as follows: radioligand binding, 5HT6 receptor. To be noted: standard radioligand binding; human recombinant receptors and native rat brain receptors; read-out: affinity for 5HT6 receptors (pKi) (converted). The method, then: (§1) Receptor affinity is determined with standard radioligand binding techniques, using human recombinant receptors and native rat brain receptors. Blockade of dopamine D2 and noradrenergic α2c receptors is tested in cell-lines using luciferase reporter gene assays based on 2nd messenger responses.

Data set [4] concerns the target adrenergic α1 receptors. The data set is described as follows: radioligand binding, adrenergic α1 receptor. Particulars: standard radioligand binding; human recombinant receptors and native rat brain receptors. As for the experimental part:
as §1

Data set [5] concerns the target 5HT2A receptors (Homo sapiens, UniProt P28223). The data set is described as follows: radioligand binding, 5HT2A receptor. Particulars: standard radioligand binding; human recombinant receptors and native rat brain receptors; read-out: affinity for 5HT2A receptors (pKi) (converted). As for the experimental part:
as §1

The target of data set [6] is T1, adrenergic α2c receptors (Homo sapiens, UniProt P18825).
T1 sequence (P18825 1-462): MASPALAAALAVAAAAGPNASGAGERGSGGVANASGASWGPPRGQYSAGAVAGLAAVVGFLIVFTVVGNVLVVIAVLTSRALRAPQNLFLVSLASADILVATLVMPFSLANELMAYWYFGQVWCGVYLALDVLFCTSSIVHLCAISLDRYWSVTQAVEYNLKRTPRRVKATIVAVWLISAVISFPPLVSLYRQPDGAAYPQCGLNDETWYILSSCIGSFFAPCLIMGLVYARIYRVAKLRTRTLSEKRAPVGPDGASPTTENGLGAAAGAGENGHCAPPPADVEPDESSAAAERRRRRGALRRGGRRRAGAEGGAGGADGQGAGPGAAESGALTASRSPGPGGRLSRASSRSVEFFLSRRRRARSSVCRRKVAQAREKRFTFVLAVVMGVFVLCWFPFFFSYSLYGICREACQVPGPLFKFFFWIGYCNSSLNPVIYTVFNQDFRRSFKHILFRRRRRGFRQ
As to the kind of experiment: radioligand binding, adrenergic α2c receptor. To be noted: standard radioligand binding; human recombinant receptors and native rat brain receptors; read-out: affinity for adrenergic α2c receptors (pKi) (converted). The method, then:
as §1

Chain of 5HT2A receptors (P28223 whole entry): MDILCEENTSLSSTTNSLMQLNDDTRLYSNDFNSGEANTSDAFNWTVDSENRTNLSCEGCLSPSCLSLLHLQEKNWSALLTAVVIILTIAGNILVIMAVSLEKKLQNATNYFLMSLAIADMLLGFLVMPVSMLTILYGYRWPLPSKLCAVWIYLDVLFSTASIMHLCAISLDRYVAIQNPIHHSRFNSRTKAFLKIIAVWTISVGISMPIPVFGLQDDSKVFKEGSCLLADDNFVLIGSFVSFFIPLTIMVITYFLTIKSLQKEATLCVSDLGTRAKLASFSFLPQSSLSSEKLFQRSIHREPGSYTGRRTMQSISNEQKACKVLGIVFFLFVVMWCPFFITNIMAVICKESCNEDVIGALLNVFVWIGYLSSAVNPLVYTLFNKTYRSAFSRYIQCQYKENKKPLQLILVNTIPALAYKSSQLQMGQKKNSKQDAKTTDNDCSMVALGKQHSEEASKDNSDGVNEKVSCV
Chain of 5HT6 receptors (P50406 whole entry): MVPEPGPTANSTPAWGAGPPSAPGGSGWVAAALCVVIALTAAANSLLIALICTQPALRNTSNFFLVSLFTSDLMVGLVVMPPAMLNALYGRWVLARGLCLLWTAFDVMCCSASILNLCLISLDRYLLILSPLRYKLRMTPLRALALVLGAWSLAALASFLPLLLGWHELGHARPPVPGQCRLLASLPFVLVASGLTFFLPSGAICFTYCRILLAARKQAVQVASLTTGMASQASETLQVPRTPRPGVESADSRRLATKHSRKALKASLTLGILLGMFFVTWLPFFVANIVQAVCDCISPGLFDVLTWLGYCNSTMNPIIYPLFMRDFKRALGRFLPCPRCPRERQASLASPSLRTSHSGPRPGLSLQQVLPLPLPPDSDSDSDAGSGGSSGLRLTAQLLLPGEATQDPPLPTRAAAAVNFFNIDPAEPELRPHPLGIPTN

For `COc1cc(C(C)O)ccc1OCCCN1CCC(c2noc3cc(F)ccc23)CC1` (racemic) [P-88-8991], the “plasma levels in human relative to the parent drug” value in data set [1] is “about 1.5 fold”.
For `COc1cc(C(C)=O)ccc1OCCCN1CCC(c2noc3cc(F)ccc23)CC1` [iloperidone, 1-(4-{3-[4-(6-fluoro-benzo[d]isoxazol-3-yl)piperidin-1-yl]propoxy}-3-methoxy-phenyl)-ethanone], the “stereospecific formation of P-88-8991 enantiomer” value in data set [2] is recorded as “humans produce only one enantiomer stereospecifically”.
In the case of `COc1cc([C@@H](C)O)ccc1OCCCN1CCC(c2noc3cc(F)ccc23)CC1` [formula II, (R)-1-(4-{3-[4-(6-fluoro-benzo[d]isoxazol-3-yl)-piperidin-1-yl]propoxy}-3-methoxy-phenyl}-ethanol], the Ki is 15.8 nM in data set [3], 1.26 nM in data set [5] and 20 nM in data set [6]. In addition, the “affinity for adrenergic α1 receptors (pKi)” value in data set [4] is reported as 9.2.
For `COc1cc([C@H](C)O)ccc1OCCCN1CCC(c2noc3cc(F)ccc23)CC1` [formula I, (S)-1-(4-{3-[4-(6-fluoro-benzo[d]isoxazol-3-yl)-piperidin-1-yl]-propoxy}-3-methoxy-phenyl)-ethanol], the Ki is 7.94 nM in data set [3], 1.26 nM in data set [5] and 15.8 nM in data set [6]. The “affinity for adrenergic α1 receptors (pKi)” value in data set [4] stood at 8.9.
